We go through two molecules from patent US7547519B2, “Methods of diagnosing multidrug resistant tuberculosis” (The United States of America as represented by the …, priority 2000, dated 2009).

In brackets after ≈: the same amount, converted by molar mass.

Test [1] concerns MTb H37Rv.
Test [2] deals with MTb H37Rv. As to the kind of experiment: microbe, parasite or virus in culture. The conditions noted are these: Mycobacterium tuberculosis.
The next test deals with MTb patient isolates. It counts as cell-based, Mycobacterium tuberculosis.

Take `CCc1cc(C(N)=S)ccn1` [ETA, ethionamide]: the growth of transformants entry with MTb H37Rv [1] was “grew as a lawn at 2.5 and 5 μg/ml ETA”. Also, the MIC in the test with MTb H37Rv [2] fell in the range of 2.5 to 5 µg/mL (≈ 15 to 30.1 µM). Also, in the test on MTb patient isolates, the isolates cross-resistant entry is recorded as “Eleven of fourteen” and the “susceptibility of isolates without mutations in EtaA, EtaR or promoter regions” value is on record as “fully sensitive”.

For `CC(C)CCOc1ccc(NC(=S)Nc2ccc(OCCC(C)C)cc2)cc1` [thiocarlide], in the test with MTb patient isolates, the isolates cross-resistant result is “thirteen out of fourteen”.
